Assay results published in patent publication US6384077B1, “Highly purified EPA for treatment of schizophrenia and related disorders” (Laxdale Limited, priority 1999, dated 2002).

Key:
[1] = test system: schizophrenia, drug-induced obesity; assay type: in vivo, human; conditions: in vivo
Text: Obesity is another common side effect of antipsychotropic drugs. In this respect some of the newer drugs like olanzapine frequently seem to be even worse offenders than the typical neuroleptics. […] They preferred the olanzapine but it still left their withdrawn and unable to communicate normally with friends or family. To their distress it caused them to put on over 10 kg in weight. Their doctor decided to test ethyl-EPA in addition to olanzapine.

schizophrenia [2] = test: case history: schizophrenia, E-EPA added to clozapine; assay type: in vivo, human; conditions: patient not responding to typical neuroleptics; clozapine up to 900 mg/day
Text: This mechanism is thought to be responsible for their rapid effects on the so-called “positive” symptoms of schizophrenia (such as hallucinations, delusions and thought disorder). […] The D2 blocking action is also responsible for many of the adverse effects of these drugs, which include extrapyramidal movement disorders, excess prolactin secretion, and tardive dyskinesias. Examples of widely used drugs in this class include chlorpromazine, thioridazine, haloperidol, pimozide, flupenthixol and sulpiride.
These may include blockade of one or more of the other dopamine receptors such as D1, D3 or D4, and also usually including blockade of one or more classes of serotonin receptors. […] They may also have actions at other receptors, including histamine, glutamate and acetyl choline receptors.
The patient was treated with clozapine, eventually reaching a maximum dose of 900 mg/day.
E-EPA in a dose of 2 g/day was then administered in addition to clozapine.

[3] = test system: patients who had schizophrenia; test: randomised, placebo-controlled study of ethyl-EPA in clozapine-treated patients with schizophrenia (PANSS, MADRS); assay type: in vivo, human; conditions: 12 weeks, patients on clozapine
Text: Although the case reports of the effects of ethyl-EPA are convincing and in some cases dramatic, unequivocal proof of its efficacy must come from randomised, placebo-controlled trials. We therefore set up a randomised, placebo-controlled study of EPA in 34 patients who had schizophrenia according to the criteria set out in the American Psychiatric Association's Diagnostic and Statistical Manual of Mental Disorders (4th edition, DSM-IV). All of these patients were being treated with clozapine drugs but all remained seriously ill, with schizophrenic symptoms. Like many schizophrenics, some of the patients were also depressed. All were assessed at baseline and after 12 weeks using the Positive and Negative Symptom Scale for Schizophrenia (PANSS) and the Montgomery-Asberg Depression Rating Scale (MADRS). After giving informed consent, all the patients were randomised on a double blind basis to one of three groups: placebo, or 1 g or 2 g of ethyl-EPA per day in the form of 0.5 g capsules. Placebo and EPA capsules were indistinguishable from one another in appearance. All the patients improved to some degree so all the changes are percentage improvements

phospholipase A2 = conditions: cited from earlier work
tardive dyskinesia = test: patients with neuroleptic-induced tardive dyskinesia treated with EPA; assay type: in vivo, human; conditions: several patients
Text: The typical neuroleptics in some patients produce a distressing condition called tardive dyskinesia. […] The patient experiences uncontrollable twitching and other movements. These can affect any part of the body but commonly affect the face where they are particularly distressing. Facial twitches and movements, including protrusions and uncontrollable movements of the tongue occur. […] Movements have become substantially less and in some patients have disappeared completely.

[4] = molecular target: human brain enzyme FACL-4 (Homo sapiens, UniProt O60488); conditions: cited from earlier work
Chain of human brain enzyme FACL-4 (O60488 whole entry): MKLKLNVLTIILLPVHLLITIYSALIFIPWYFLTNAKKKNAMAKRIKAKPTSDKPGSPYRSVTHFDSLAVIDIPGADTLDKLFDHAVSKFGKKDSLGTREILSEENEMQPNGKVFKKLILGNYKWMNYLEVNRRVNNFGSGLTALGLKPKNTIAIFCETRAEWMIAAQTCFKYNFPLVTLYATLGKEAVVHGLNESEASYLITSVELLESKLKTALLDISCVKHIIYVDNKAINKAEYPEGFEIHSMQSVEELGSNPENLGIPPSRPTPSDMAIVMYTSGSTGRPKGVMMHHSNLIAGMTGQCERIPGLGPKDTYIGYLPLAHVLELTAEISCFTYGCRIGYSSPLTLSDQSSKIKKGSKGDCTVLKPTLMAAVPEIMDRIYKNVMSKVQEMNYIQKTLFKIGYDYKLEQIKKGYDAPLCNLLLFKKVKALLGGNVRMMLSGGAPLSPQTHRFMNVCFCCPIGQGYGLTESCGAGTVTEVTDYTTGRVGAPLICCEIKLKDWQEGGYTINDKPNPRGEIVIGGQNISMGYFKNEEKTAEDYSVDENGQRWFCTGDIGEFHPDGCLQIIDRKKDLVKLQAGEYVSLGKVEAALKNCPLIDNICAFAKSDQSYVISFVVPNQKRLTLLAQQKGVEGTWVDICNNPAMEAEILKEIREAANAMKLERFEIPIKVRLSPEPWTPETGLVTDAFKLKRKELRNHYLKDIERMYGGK

[5] = test system: attention deficit hyperactivity disorder (ADHD); test: case report: child with ADHD; assay type: in vivo, human; conditions: before ethyl-EPA
Text: Attention deficit hyperactivity disorder (ADHD): ADHD and closely related conditions like attention deficit disorder and conduct disorders are commonly found in children. Occasionally they may be successfully treated by behaviour modification and other psychological techniques or by careful attention to diet. However, in most cases, paradoxical treatment with one of the stimulant drugs related in their action to amphetamine is required. Methylphenidate and dextroamphetamine are the commonest used. A child with serious ADHD since infancy was driving their parents to distraction. […] The parents were concerned about the long term consequences of stimulant drugs. The child was therefore tried on two capsules of pure ethyl-EPA per day. […] The child became less tense and irritable, less hyperactive, more open to reasoned discussion and enormously less disruptive both at home and school. Even when their methylphenidate was stopped, their behaviour remained improved.

schizophrenia [6] = test: case history: schizophrenia, ethyl-EPA added to haloperidol; assay type: in vivo, human; conditions: person
Text: A person had become ill with schizophrenia. They had florid hallucinations and paranoia, but also withdrew themself from most of their friendships and lived alone. […] They lived alone, ceased to communicate with most of their friends, and went around to town alone and muttering to […]. Their psychiatrist heard about ethyl-EPA and decided to try it in addition to the standard drug. After eight weeks on treatment with 4 g/day their outlook was transformed. […] They were even persuaded to go on holiday with their family where they enjoyed themself and made new friends. The EPA therefore reversed the extreme withdrawal which appeared to have been exaggerated by haloperidol.

SMILES: Cc1cc2c(s1)Nc1ccccc1N=C2N1CCN(C)CC1 [olanzapine, reference compound]
- weight put on [1]: over 10 kg

SMILES: Cc1nc2n(c(=O)c1CCN1CCC(c3noc4cc(F)ccc34)CC1)CCCC2 [risperidone, reference compound]
- clinical response to neuroleptic alone (schizophrenia [2]): no substantial benefit

SMILES: OCCOCCN1CCN(C2=Nc3ccccc3Sc3ccccc32)CC1 [quetiapine, reference compound]
- clinical response to neuroleptic alone (schizophrenia [2]): no substantial benefit

SMILES: CC/C=C\C/C=C\C/C=C\C/C=C\C/C=C\CCCC(=O)O [EPA, all cis (or all z) 5,8, 11, 14, 17-eicosapentaenoic acid]
- MADRS, percentage improvement from baseline ([3]; 1 g ethyl-EPA per day): 35.7%
- Total PANSS, percentage improvement from baseline ([3]; 1 g ethyl-EPA per day): 18.8%
- negative PANSS, percentage improvement from baseline ([3]; 1 g ethyl-EPA per day): 22.7%
- positive PANSS, percentage improvement from baseline ([3]; 1 g ethyl-EPA per day): 20.0%
- MADRS, percentage improvement from baseline ([3]; 2 g ethyl-EPA per day): 35.7%
- Total PANSS, percentage improvement from baseline ([3]; 2 g ethyl-EPA per day): 17.1%
- negative PANSS, percentage improvement from baseline ([3]; 2 g ethyl-EPA per day): 22.7%
- positive PANSS, percentage improvement from baseline ([3]; 2 g ethyl-EPA per day): 25.0%
- inhibition of phospholipase A2 (phospholipase A2): known to inhibit phospholipase A2
- tardive dyskinesia (tardive dyskinesia): substantial relief from tardive dyskinesia
- affinity for FACL-4 [4]: unusually high affinity
- FACL-4 activity for EPA, greater than for AA ([4]; relative to AA): 50%

SMILES: COC(=O)C(c1ccccc1)C1CCCCN1 (stereo not drawn) [methylphenidate, reference compound]
- control of ADHD [5]: only partially controlled

SMILES: CCCCC/C=C\C/C=C\C/C=C\C/C=C\CCCC(=O)O [AA, arachidonic acid, reference compound]
- FACL-4 activity for AA relative to DHA ([4]; relative to DHA): more than twice as great as for DHA

SMILES: O=C(CCCN1CCC(O)(c2ccc(Cl)cc2)CC1)c1ccc(F)cc1 [haloperidol, reference compound]
- effect on hallucinations, drug alone (schizophrenia [6]): stopped most of the hallucinations
